Read-outs that look alike come from different tables or passages of the source.
How the values were obtained:
[1] = OC study 2: EE and LN PK with/without ritlecitinib 50 mg QD; type: in vivo, human; settings: for AUC(0-t) / Cmax / AUC(0-inf): female, human, plasma, oral; for Cmax: adjusted geometric mean (test), 1 Portia tablet on Day 10 of ritlecitinib 50 mg QD × 13 days, healthy females
[2] = OC study 1: EE and LN PK with/without ritlecitinib 200 mg QD; type: in vivo, human; settings: for AUC(0-t) / Cmax / AUC(0-inf): female, human, plasma, oral, healthy females; for AUC(0-t): AUClast; for AUC(0-inf): AUCinf
CYP2B6 = biological target: T1, CYP2B6 (Homo sapiens, UniProt P20813); settings: for Effect of ritlecitinib on efavirenz AUC0–72 and Cmax (in words): ritlecitinib 200 mg QD
T1 sequence (P20813 1-491): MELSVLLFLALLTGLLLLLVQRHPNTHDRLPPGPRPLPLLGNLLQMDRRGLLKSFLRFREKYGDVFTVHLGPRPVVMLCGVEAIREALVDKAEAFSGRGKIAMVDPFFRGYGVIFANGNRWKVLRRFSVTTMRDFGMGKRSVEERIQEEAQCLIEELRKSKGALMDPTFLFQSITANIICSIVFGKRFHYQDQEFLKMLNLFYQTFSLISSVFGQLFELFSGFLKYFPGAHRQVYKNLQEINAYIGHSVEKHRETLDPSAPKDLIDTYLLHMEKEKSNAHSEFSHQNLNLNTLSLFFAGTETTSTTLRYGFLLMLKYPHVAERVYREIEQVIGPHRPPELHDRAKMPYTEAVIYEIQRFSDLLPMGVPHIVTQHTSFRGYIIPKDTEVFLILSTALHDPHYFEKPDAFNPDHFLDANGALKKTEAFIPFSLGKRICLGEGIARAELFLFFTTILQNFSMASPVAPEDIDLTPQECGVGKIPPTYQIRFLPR

CYP3A [3] = assay: Midazolam and efavirenz DDI study: midazolam PK with/without ritlecitinib
CYP1A2 [4] = settings: cited from earlier work
CYP3A [5] = assay: Itraconazole DDI study: ritlecitinib PK with/without itraconazole; type: in vivo, human
[6] = cited from earlier work
[7] = cited from earlier work; remark: listed apart in the source
CYP1A2 [8] = biological target: T2, CYP1A2 (Homo sapiens, UniProt P05177); assay: CYP time-dependent inhibition in human liver microsomes; type: in vitro ADME
T2 sequence (P05177 1-516): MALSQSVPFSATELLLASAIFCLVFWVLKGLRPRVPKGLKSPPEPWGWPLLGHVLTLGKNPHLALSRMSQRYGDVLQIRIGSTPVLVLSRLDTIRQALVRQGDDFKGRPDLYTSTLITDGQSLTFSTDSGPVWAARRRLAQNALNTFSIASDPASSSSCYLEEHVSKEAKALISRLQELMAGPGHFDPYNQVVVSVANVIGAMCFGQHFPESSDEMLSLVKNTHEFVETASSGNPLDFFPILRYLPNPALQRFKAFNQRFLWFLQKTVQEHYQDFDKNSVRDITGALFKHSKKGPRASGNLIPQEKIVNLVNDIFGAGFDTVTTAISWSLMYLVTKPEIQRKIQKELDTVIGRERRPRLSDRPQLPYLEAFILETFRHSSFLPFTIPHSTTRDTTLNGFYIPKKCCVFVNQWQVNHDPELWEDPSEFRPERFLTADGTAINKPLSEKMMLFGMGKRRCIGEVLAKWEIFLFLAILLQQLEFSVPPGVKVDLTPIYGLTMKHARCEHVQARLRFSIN

CYP3A4/5 = assay: as above; type: in vitro ADME
[9] = test system: organic cation transporter 1 (OCT1); settings: cited from earlier work
CYP = assay: Rifampicin DDI study: ritlecitinib PK with/without rifampicin; type: in vivo, human
CYP1A2 [10] = assay: Caffeine DDI study: caffeine PK with/without ritlecitinib; type: in vivo, human; settings: from caffeine DDI at ritlecitinib 200 mg QD
[11] = adjusted geometric mean (reference), 1 Portia tablet (EE 30 μg and LN 150 μg) alone
[12] = adjusted geometric mean (test), 1 Portia tablet (EE 30 μg and LN 150 μg) on Day 10 of ritlecitinib 200 mg QD × 11 days
[13] = efavirenz with ritlecitinib 200 mg QD × 11 days vs without
[14] = efavirenz with ritlecitinib 200 mg QD × 11 days vs without, listed as efavirenz
[15] = midazolam with ritlecitinib 200 mg QD × 11 days vs without
[16] = midazolam with ritlecitinib 200 mg QD × 11 days vs without, listed as midazolam
[17] = caffeine single dose with ritlecitinib 200 mg QD × 9 days, plasma
[18] = caffeine with ritlecitinib 200 mg QD × 9 days vs alone
[19] = caffeine with ritlecitinib 200 mg QD × 9 days vs alone, listed as caffeine
[20] = multiple 200-mg doses of itraconazole, ritlecitinib 30 mg
[21] = ritlecitinib 30 mg with itraconazole 200 mg QD × 5 days vs alone
[22] = ritlecitinib 50 mg with rifampicin 600 mg QD × 8 days vs alone
[23] = ritlecitinib 50 mg with rifampicin 600 mg QD × 8 days vs alone, listed as ritlecitinib
[24] = multiple ritlecitinib 200 mg QD doses

C#C[C@]1(O)CC[C@H]2[C@@H]3CCC4=CC(=O)CC[C@@H]4[C@H]3CC[C@@]21CC [LN, levonorgestrel]
AUC(0-t) ([1]; 50 mg): 29.6 ng·h/mL
Cmax ([1]; 50 mg): 2.32 ng/mL
AUC(0-t) ([1]; 1 Portia tablet): 33.7 ng·h/mL
AUC(0-t) [2, 11]: 23.8 ng·h/mL
AUC(0-t) [2, 12]: 26.8 ng·h/mL
Cmax [2, 11]: 2.94 ng/mL
Cmax [2, 12]: 3.03 ng/mL

O=C1Nc2ccc(Cl)cc2[C@@](C#CC2CC2)(C(F)(F)F)O1 [Efavirenz, efavirenz]
AUC0–72, ratio (test/reference) of adjusted geometric means (90% CI) (CYP2B6; [13]): 99.7 (95.2–104.4) %
AUClast, ratio (test/reference) of adjusted geometric means (90% CI) (CYP2B6; [13]): 99.7 (95.3–104.4) %
Cmax, ratio (test/reference) of adjusted geometric means (90% CI) (CYP2B6; [13]): 88.2 (77.1–101.0) %
AUC0–72, ratio (test/reference) of adjusted geometric means (90% CI) (CYP2B6; [14]): 99.7%
Cmax, ratio (test/reference) of adjusted geometric means (90% CI) (CYP2B6; [14]): 88.2%
Effect of ritlecitinib on efavirenz AUC0–72 and Cmax (in words) (CYP2B6): similar
Effect of ritlecitinib on efavirenz AUC0–72 and Cmax (in words) (CYP2B6; listed as efavirenz): did not produce clinically meaningful changes

Cc1ncc2n1-c1ccc(Cl)cc1C(c1ccccc1F)=NC2 [Midazolam, midazolam]
AUCinf, ratio (test/reference) of adjusted geometric means (90% CI) (CYP3A [3]; [15]): 269.4 (216.1–335.9) %
AUClast, ratio (test/reference) of adjusted geometric means (90% CI) (CYP3A [3]; [15]): 269.3 (215.8–336.1) %
Cmax, ratio (test/reference) of adjusted geometric means (90% CI) (CYP3A [3]; [15]): 180.8 (148.1–220.6) %
AUCinf, ratio (test/reference) of adjusted geometric means (90% CI) (CYP3A [3]; [16]): 269.4%
Cmax, ratio (test/reference) of adjusted geometric means (90% CI) (CYP3A [3]; [16]): 180.8%
Fold increase of midazolam AUCinf in the presence of ritlecitinib (CYP3A [3]; ritlecitinib 200 mg QD): 2.7 fold
Fold increase of midazolam Cmax in the presence of ritlecitinib (CYP3A [3]; ritlecitinib 200 mg QD): 1.8 fold
Increase of midazolam AUCinf in the presence of ritlecitinib (CYP3A [3]; ritlecitinib 200 mg QD): ≈ 169%
Fold increase of midazolam AUCinf in the presence of ritlecitinib (CYP3A [3]; ritlecitinib 200 mg QD, listed as midazolam): ≈ 2.7 fold

Cn1c(=O)c2c(ncn2C)n(C)c1=O [Caffeine, caffeine]
AUCinf, adjusted geometric mean (reference) (CYP1A2 [4]; caffeine alone, plasma): 15 660 ng h/mL
AUClast, adjusted geometric mean (reference) (CYP1A2 [4]; caffeine alone, plasma): 14 780 ng h/mL
Cmax, adjusted geometric mean (reference) (CYP1A2 [4]; caffeine alone, plasma): 2162 ng/mL
AUCinf, adjusted geometric mean (test) (CYP1A2 [4]; [17]): 41 530 ng h/mL
AUClast, adjusted geometric mean (test) (CYP1A2 [4]; [17]): 38 580 ng h/mL
Cmax, adjusted geometric mean (test) (CYP1A2 [4]; [17]): 2372 ng/mL
AUClast, ratio (test/reference) of adjusted geometric means (90% CI) (CYP1A2 [4]; [18]): 261.0 (232.5−293.1) %
Cmax, ratio (test/reference) of adjusted geometric means (90% CI) (CYP1A2 [4]; [18]): 109.7 (103.9−115.9) %
AUCinf, ratio (test/reference) of adjusted geometric means (90% CI) (CYP1A2 [4]; [19]): 265.1%
Cmax, ratio (test/reference) of adjusted geometric means (90% CI) (CYP1A2 [4]; [19]): 109.7%
Fold increase of caffeine AUCinf by ritlecitinib (CYP1A2 [4]; ritlecitinib 200 mg QD): ≈ 2.7 fold
Fold increase of caffeine Cmax by ritlecitinib (CYP1A2 [4]; ritlecitinib 200 mg QD): ~1.1 fold
Increase of caffeine AUCinf in the presence of ritlecitinib (CYP1A2 [4]; ritlecitinib 200 mg QD): ≈ 165%
Increase of caffeine Cmax in the presence of ritlecitinib (CYP1A2 [4]; ritlecitinib 200 mg QD): ≈ 10%

C=CC(=O)N1C[C@H](Nc2ncnc3[nH]ccc23)CC[C@@H]1C [Ritlecitinib, ritlecitinib]
AUC(0-inf) (CYP3A [5]; human, plasma, oral, 30 mg): 268 ng·h/mL
AUC(0-t) (CYP3A [5]; human, plasma, oral, 30 mg): 264 ng·h/mL
Cmax (CYP3A [5]; human, plasma, oral, 30 mg): 153 ng/mL
Effect of itraconazole on ritlecitinib Cmax (in words) (CYP3A [5]; [20]): similar
Increase of ritlecitinib AUCinf with itraconazole (CYP3A [5]; [20]): ≈ 15%
AUCinf, ratio (test/reference) of adjusted geometric means (90% CI) (CYP3A [5]; [21]): 115.1 (104.6–126.7) %
AUClast, ratio (test/reference) of adjusted geometric means (90% CI) (CYP3A [5]; [21]): 115.1 (104.4–126.7) %
Cmax, ratio (test/reference) of adjusted geometric means (90% CI) (CYP3A [5]; [21]): 102.5 (82.8–127.0) %
Contribution of any single pathway to metabolism [6]: ≤ 25%
Predicted collective contribution of CYPs to metabolic disposition [6]: ≈ 47%
Predicted contribution of glutathione conjugation to metabolic disposition [6]: ≈ 24%
Half-life (t½) of ritlecitinib ([7]; quoted for the study design, ref previous studies): < 2 h
Dose proportionality of exposure (in words) ([7]; up to 200 mg): approximately dose‐proportionally
Classification as clinical CYP3A inhibitor (CYP3A [3]; from midazolam DDI at ritlecitinib 200 mg QD): moderate inhibitor
Time-dependent inhibition of CYP1A2 in vitro (in words) (CYP1A2 [8]): time dependent inhibitor
Time-dependent inhibition of CYP3A in vitro (in words) (CYP3A4/5): time dependent inhibitor
Inhibition of OCT1 (in words) [9]: inhibitor
Decrease of ritlecitinib AUCinf with rifampicin (CYP; multiple rifampicin doses, ritlecitinib 50 mg): ≈ 45%
AUCinf, ratio (test/reference) of adjusted geometric means (90% CI) (CYP; [22]): 55.8 (51.9–59.9) %
AUClast, ratio (test/reference) of adjusted geometric means (90% CI) (CYP; [22]): 55.7 (51.9–59.7) %
Cmax, ratio (test/reference) of adjusted geometric means (90% CI) (CYP; [22]): 75.1 (63.3–89.1) %
AUCinf, ratio (test/reference) of adjusted geometric means (90% CI) (CYP; [23]): 55.8%
Cmax, ratio (test/reference) of adjusted geometric means (90% CI) (CYP; [23]): 75.1%
Clinical relevance of exposure change with rifampicin (in words) (CYP; typical exposure range 0.5- to 2-fold of mean exposure): not decreased to clinically relevant levels
Classification as clinical CYP1A2 inhibitor (CYP1A2 [10]): moderate inhibitor

C#C[C@]1(O)CC[C@H]2[C@@H]3CCc4cc(O)ccc4[C@H]3CC[C@@]21C [EE, ethinyl oestradiol]
AUC(0-inf) ([1]; 50 mg): 0.733 ng·h/mL
AUC(0-t) ([1]; 50 mg): 0.605 ng·h/mL
Cmax ([1]; 50 mg): 0.0638 ng/mL
AUC(0-inf) ([1]; 1 Portia tablet): 0.747 ng·h/mL
AUC(0-t) ([1]; 1 Portia tablet): 0.658 ng·h/mL
Effect of ritlecitinib 50 mg QD on PK of OC steroid (in words) [1]: did not produce a clinically meaningful change
Effect of ritlecitinib 50 mg QD on PK of OC steroid (in words) ([1]; listed as ethinyl oestradiol): no relevant change
AUC(0-inf) [2, 11]: 0.8 ng·h/mL
AUC(0-inf) [2, 12]: 0.656 ng·h/mL
Cmax [2, 12]: 0.0606 ng/mL
Decrease of AUCinf following coadministration of ritlecitinib [2, 24]: ≈ 18%
Decrease of Cmax following coadministration of ritlecitinib [2, 24]: ≈ 12%
Effect of ritlecitinib 200 mg QD on PK of OC steroid (in words) ([2]; ritlecitinib 200 mg QD): decreased

Source: PMC12304827 (British Journal of Clinical Pharmacology, 2025)
